Measurements published in paper PMC4383465 (European journal of pharmacology, 2014).
Several values for one entry are separate records, joined by “and”; a condition that tells them apart may be missing. Equal entries are not always repeated. Marks after values point to notes of the source that are not given here.

What was measured:
[1] = molecular target: human cannabinoid type-2 receptors (Homo sapiens, UniProt P34972); format: binding; details: for Selectivity CB1/CB2: CB1-Ki value divided CB2-Ki value
[2] = molecular target: cannabinoid type-1 receptors endogenously expressed in Neuro2A cells (Mus musculus, UniProt P47746); assay: Intracellular cAMP levels; format: cell-based; details: for CB1R intrinsic activity: modulation of AC-activity compared to full agonist CP-55,940; for effect on intracellular cAMP compared to basal levels: 10 μM
[3] = molecular target: human cannabinoid type-2 receptors stably expressed in CHO-hCB2 cells (Homo sapiens, UniProt P34972); assay: Intracellular cAMP levels; format: cell-based; details: for CB2R intrinsic activity: modulation of AC-activity compared to full agonist CP-55,940
[4] = molecular target: cannabinoid type-1 receptors (Mus musculus, UniProt P47746); details: read-out: [3H]CP binding Ki, ref Brents et al., 2011; cited from earlier work
[5] = up to a dose of 120 mg/kg; ref Geng et al., 2009; cited from earlier work
[6] = after oral delivery, plasma; ref Al-Ghananeem et al., 2007; cited from earlier work

Sequence of cannabinoid type-1 receptors endogenously expressed in Neuro2A cells (P47746 whole entry): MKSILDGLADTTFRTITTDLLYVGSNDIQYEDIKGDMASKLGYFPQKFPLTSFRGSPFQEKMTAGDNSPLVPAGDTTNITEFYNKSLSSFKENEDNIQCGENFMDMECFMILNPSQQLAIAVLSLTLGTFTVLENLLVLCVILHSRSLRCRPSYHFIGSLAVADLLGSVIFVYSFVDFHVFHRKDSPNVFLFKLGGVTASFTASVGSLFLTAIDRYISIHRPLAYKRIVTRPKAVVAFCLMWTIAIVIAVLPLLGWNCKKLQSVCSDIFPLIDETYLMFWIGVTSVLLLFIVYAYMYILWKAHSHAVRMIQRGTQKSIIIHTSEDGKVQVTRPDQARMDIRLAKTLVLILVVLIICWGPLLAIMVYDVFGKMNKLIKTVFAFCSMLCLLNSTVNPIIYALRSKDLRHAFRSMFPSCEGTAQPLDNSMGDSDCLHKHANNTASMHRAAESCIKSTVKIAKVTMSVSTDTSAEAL
Sequence of human cannabinoid type-2 receptors (P34972 whole entry): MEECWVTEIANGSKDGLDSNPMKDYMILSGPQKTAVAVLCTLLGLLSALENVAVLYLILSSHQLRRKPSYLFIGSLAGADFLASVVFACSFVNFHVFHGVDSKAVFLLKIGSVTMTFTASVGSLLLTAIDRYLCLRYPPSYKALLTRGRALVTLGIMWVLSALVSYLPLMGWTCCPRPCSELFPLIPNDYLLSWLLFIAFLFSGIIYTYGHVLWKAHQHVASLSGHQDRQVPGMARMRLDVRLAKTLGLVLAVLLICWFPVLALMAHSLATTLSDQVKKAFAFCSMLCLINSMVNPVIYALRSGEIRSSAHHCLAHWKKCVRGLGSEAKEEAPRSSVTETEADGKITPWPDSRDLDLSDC
Sequence of human cannabinoid type-2 receptors stably expressed in CHO-hCB2 cells (P34972 whole entry): as above
Sequence of cannabinoid type-1 receptors (P47746 whole entry): as the sequence (P47746 whole entry) above

Compound	Selectivity CB1/CB2 [1]	CB1R intrinsic activity [2]	effect on intracellular cAMP compared to basal levels ([2]; screen, Neuro2A cells)	intrinsic activity from full concentration-effect curves ([3]; CHO-hCB2 cells)	Adenylyl Cyclase Inhibition Imax (% Inhibition) ([3]; concentration-effect curve, intact CHO-hCB2 cells, negative = increase in cAMP)	CB2R intrinsic activity [3]	reduction in intracellular cAMP levels when administered alone ([2]; EC90 concentration (10 nM), Neuro2A cells)	Adenylyl Cyclase Inhibition Imax (% Inhibition) ([2]; concentration-effect curve, intact Neuro2A cells, 10 μM forskolin)	decrease in intracellular cAMP levels ([2]; screen, 1 μM, Neuro2A cells)	Ki [4]	increase in cAMP concentrations above basal levels ([3]; screen, 10 μM, CHO-hCB2 cells)	acute toxicity [5]	selectivity for binding to cannabinoid type-2 relative to type-1 receptors [1]	AUC [6]	average Cmax [6]
O=C1/C(=C/c2cn(Cc3ccc(Cl)cc3)c3ccccc23)N2CCC1CC2 [Compound 1]	1.56	Neutral Antagonist	did not significantly alter cAMP concentrations	full agonists	63.0 ± 5.2^a,b % Inhibition	Agonist									
CCCCCCC(C)(C)c1ccc([C@@H]2C[C@H](O)CC[C@H]2CCCO)c(O)c1 [CP-55,940, reference compound]		Agonist					45.7 +/− 3.7%	42.4±3.8 % Inhibition and 42.4 ± 3.8^a % Inhibition	64.1 +/− 1.6%	0.26 ± 0.1 nM					
COC(=O)c1ccc(Cn2cc(/C=C3/C(=O)C4CCN3CC4)c3ccccc32)cc1 [Compound 4]	1.62	Inverse Agonist	significant elevations in intracellular cAMP above basal levels			Inverse Agonist					278 +/− 38.6%				
OC1/C(=C/c2cn(Cc3ccccc3)c3ccccc23)N2CCC1CC2 (centres unmarked) [Compound 8, (Z)-2-((1-benzyl-1H-indol-3-yl)methylene)quinuclidin-3-ol]		Neutral Antagonist	did not significantly alter cAMP concentrations			Agonist						did not produce any acute toxicity	10 fold	3561 ± 670 ng·kg·min/mL/mg	1,710 ± 503 ng/ml
